The results in this text go back to ChEMBL document CHEMBL1201862, “PubChem BioAssay data set” (2004).

Holding throughout (assay): NCI-60 cell line screen, 48 h
Assay [1] deals with BT-549.
In assay [2] the test system is CAKI-1.
In assay [3] the test system is CCRF-CEM.
Assay [4] has as its system DU-145.
For assay [5], the system named is Hs-578T.
Assay [6] has as its system KM12.
In assay [7] the test system is M14.
In assay [8] the test system is MCF7.
Assay [9] concerns MDA-MB-231.
The subject of assay [10] is RXF 393.
In assay [11] the test system is SF-295.
The subject of assay [12] is SK-MEL-2.
For assay [13], the system named is SK-MEL-5.
Assay [14] relates to SK-OV-3.
Assay [15] relates to SN12C.
Assay [16] has as its system SW-620.
Assay [17] relates to UACC-62.
The subject of assay [18] is UO-31.

The structures appear in SMILES notation.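 Each compound was tested at five concentrations against cells in 96-well plates for 48 hours. GI50 = concentration required for 50% inhibition of growth.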 The source made the active and inactive calls. No stated cut-off is given here; in the data, active = GI50 up to about 1.1 µM and inactive = higher.

For the molecule `NCC1CCN(c2nc3ccccc3c3c2CCCC3)CC1`, the GI50 was 14.2 µM (inactive) in assay [1]; 8.61 µM (inactive) in [2]; 2.87 µM (inactive) in assay [3]; 13.1 µM (inactive) in assay [4]; 20.1 µM (inactive) in [5]; 4.28 µM (inactive) in assay [6]. For the same molecule, the GI50 in [7] was 1.92 µM (inactive); in [8], 4.86 µM (inactive); in [9], 5.57 µM (inactive); in assay [10], 2.75 µM (inactive); in assay [11], 12.9 µM (inactive); in assay [12] it was 5.73 µM (inactive). Also, the GI50 is 2.96 µM (inactive) in [13]; 14.7 µM (inactive) in assay [14]; 9.55 µM (inactive) in assay [15]; 2.86 µM (inactive) in assay [16]; 2.29 µM (inactive) in [17]; 5.6 µM (inactive) in assay [18].

On to `Oc1ccc(/C=C/c2cc(O)cc3c2C(c2cc(O)cc(O)c2)C(c2ccc(O)c(O)c2)O3)cc1` (centres undefined), for which the GI50 was 23.7 µM (inactive) in assay [1]; 31.7 µM (inactive) in [2]; 8.34 µM (inactive) in assay [3]; 35.1 µM (inactive) in [4]; 26.4 µM (inactive) in assay [5]; 25.6 µM (inactive) in assay [6]. Moreover, the GI50 in [7] is 31.9 µM (inactive); in assay [8], 33.3 µM (inactive); in [9] it was 29 µM (inactive); in [10] it was 41.3 µM (inactive); in [11], 36.6 µM (inactive); in [12] it was 28.4 µM (inactive). In addition, the GI50 is 17.2 µM (inactive) in [13]; 32.5 µM (inactive) in assay [14]; 17.6 µM (inactive) in assay [15]; 39.2 µM (inactive) in assay [16]; 18.2 µM (inactive) in assay [17]; 30.9 µM (inactive) in assay [18].

With `O=C1Nc2ccccc2C1=Nc1ccc(S(=O)(=O)Nc2nccs2)cc1`, the GI50 in assay [1], in assay [2], in assay [3], in assay [4], in assay [5] and in assay [6] was > 100 µM (inactive) throughout. Besides, the GI50 in assay [7], in [8], in assay [9], in assay [10], in assay [11] and in assay [12] was > 100 µM (inactive) each time. The GI50 in [13], in assay [14], in assay [15], in assay [16], in assay [17] and in assay [18] was > 100 µM (inactive) throughout.

Take `CC1=NNC(=S)NCCCN2CCN(CCCNC(=S)NN=C(C)C=NNC(=S)NCCCN3CCN(CCCNC(=S)NN=C1)CC3)CC2`: the GI50 in assay [1], in assay [2], in assay [3], in assay [4], in [5] and in [6] was > 100 µM (inactive) in each case. The GI50 in assay [7], in assay [8], in assay [9], in [10], in assay [11] and in [12] was > 100 µM (inactive) throughout. Further, the GI50 in [13], in assay [14], in [15], in assay [16], in assay [17] and in assay [18] was > 100 µM (inactive) in each case.

With `O=[N+]([O-])c1c(F)c(F)c2c(c1F)N(CCCCCl)c1ccccc1S2`, the GI50 was 14.6 µM (inactive) in [1]; 6.98 µM (inactive) in [2]; 2.38 µM (inactive) in [3]; 13.2 µM (inactive) in assay [4]; 24.8 µM (inactive) in [5]; 10.5 µM (inactive) in [6]. For the same molecule, the GI50 in assay [7] was 4.83 µM (inactive); in assay [8], 3.61 µM (inactive); in [9] it was 7.89 µM (inactive); in [10] it was 13.8 µM (inactive); in assay [11] it was 16.6 µM (inactive); in [12] it was 3.63 µM (inactive). In addition, the GI50 in assay [13] is 12.2 µM (inactive); in assay [14], 19.7 µM (inactive); in assay [15], 7.5 µM (inactive); in assay [16], 4.05 µM (inactive); in [17], 13.9 µM (inactive); in [18], 16.9 µM (inactive).

For `CC12c3c4cccc3Oc3cc(N)cc(c31)Oc1cc(N)cc(c12)O4`, the GI50 in [1] is 3.84 µM (inactive); in [2], 9.86 µM (inactive); in assay [3] it was 0.736 µM (active); in assay [4], 5.52 µM (inactive); in [5] it was 6.18 µM (inactive); in assay [6], 4.26 µM (inactive). Moreover, the GI50 in [7] is 4.55 µM (inactive); in assay [8] it was 4.37 µM (inactive); in assay [9], 3.5 µM (inactive); in [10] it was 0.408 µM (active); in assay [11] it was 2.53 µM (inactive); in assay [12] it was 9.86 µM (inactive). Further, the GI50 in assay [13] is 3.3 µM (inactive); in [14] it was 4.11 µM (inactive); in assay [15] it was 8.28 µM (inactive); in [16] it was 3.48 µM (inactive); in [17] it was 4.59 µM (inactive); in [18], 17.7 µM (inactive).

Consider `CC(C)Oc1cccc(N2C(Nc3ccccc3)=Nc3ccncc3S2(=O)=O)c1`, for which the GI50 in assay [1] was 22.4 µM (inactive); in assay [2] it was 26 µM (inactive); in assay [3], 7.55 µM (inactive); in [4], 42.4 µM (inactive); in [5], 39.7 µM (inactive); in assay [6], 20.7 µM (inactive). Moreover, the GI50 in assay [7] was 25.3 µM (inactive); in assay [8] it was 17.6 µM (inactive); in [9], 15.2 µM (inactive); in assay [10], 21.9 µM (inactive); in [11] it was 23.1 µM (inactive); in [12] it was 7.01 µM (inactive). Also, the GI50 in [13] is 4.12 µM (inactive); in [14] it was 44 µM (inactive); in assay [15], 30.8 µM (inactive); in assay [16] it was 17.3 µM (inactive); in [17], 19.9 µM (inactive); in assay [18] it was 19.1 µM (inactive).

`O=C(Nc1cc(C(=O)Nc2cccc(S(=O)(=O)O)c2)cc(C(=O)Nc2cccc(S(=O)(=O)O)c2)c1)c1cccc(C(=O)Nc2cc(C(=O)Nc3cccc(S(=O)(=O)O)c3)cc(C(=O)Nc3cccc(S(=O)(=O)O)c3)c2)c1`: the GI50 in assay [1] is > 100 µM (inactive); in [2] it was > 100 µM (inactive); in assay [3], > 100 µM (inactive); in assay [4] it was > 100 µM (inactive); in [5], > 100 µM (inactive); in assay [6], 30.7 µM (inactive). The GI50 in assay [7] was 97.1 µM (inactive); in [8], > 100 µM (inactive); in assay [9] it was > 100 µM (inactive); in [10] it was > 100 µM (inactive); in [11] it was > 100 µM (inactive); in [12], > 100 µM (inactive). Also, the GI50 in assay [13], in assay [14], in [15], in assay [16], in [17] and in assay [18] was > 100 µM (inactive) each time.
